Like-named read-outs stand apart in the source and are kept apart here.

In data set [1] the test system is T1, p27 ubiquitination (E1, E2, E3 SCF^Skp2, Cks1).
T1 construct: His; Strep tag (cleaved yes); GST; made in house; host or cells: Sf9 (His-E1; p27/Cdk2/cyclin E); E. coli (His-UbcH3, Cks1); baculovirus-infected insect cells (SCF-Skp2)
The data set is described as follows: p27 ubiquitination assay, plate capture format (DMSO tolerance). Format: biochemical, Human. An excerpt: This assay measures the ubiquitination of cell cycle inhibitor p27 in a high-throughput-capable in vitro reconstituted system that mimics the ubiquitination of p27 in vivo. Ubiquitinated p27 is captured using an anti-p27 antibody-coated plate and detected by Europium (Eu)-labeled streptavidin that binds biotinylated ubiquitin. The assay as described below incorporates the addition of a test compound to the ubiquitination reaction.
Assay mix A (see below) contained: 3× concentration ubiquitin buffer (120 mM Tris·HCl pH 7.5, 15 mM MgCl2), 3 mM dithiothreitol, 15 ng/μL E1, 450 ng/μLE2, 15 ng/μL E3, and 12 ng/μL pre-phosphorylated p27.
Starting solution (see below) contained 0.75 mg/mL biotinylated ubiquitin and 0.75 ng/μL Cks1 in assay dilution buffer (30 mM Tris·HCl pH7.5, 1 mM DTT, 19.5% glycerol). Starting solution for negative control contains 0.75 mg/mL biotinylated ubiquitin in assay dilution buffer (30 mM Tris·HCl pH7.5, 1 mM DTT, 19.5% glycerol).
The capture plates were coated as follows. […]
The ubiquitination reaction was run as follows: 5 μL of a test compound in 6% dimethylsulfoxide (DMSO) was added to each well of a V-bottom plate. […] 25 μL enhancement solution was added per well, and the plates were read to determine the amount of time-resolved fluorescence emission at 615 nm for Europium chelate. […]

Data set [2] concerns p27 ubiquitination (E1, E2, E3 SCF^Skp2, Cks1). The settings on record: reaction includes 5 mM MgCl2.
Source text: A homogenous, time-resolved fluorescence resonance energy transfer (HTR-FRET) assay was developed for high throughput screening of compounds that block p27 ubiquitination in vitro. In this assay, p27 is modified with a mixture of ubiquitin (Ub) and biotinylated ubiquitin (Bio-Ub) in the presence of E1, E2, E3 and Cks1 (FIG. 11). A rabbit anti-phospho-p27 antibody and Lance Eu labeled Protein G (Eu-PRG) were used as a donor and Cy5-labeled streptavidin (Cy5-SA or Dylite-SA) is used as an acceptor. Ubiquitinated p27 is detected by FRET signal generated between Eu and Cy5.
In this format, Bio-Ub is used as a tracer to label ubiquitinated p27. Lance Eu-labeled Protein G (Eu-PRG) coupled to anti-phospho-p27 is used as the FRET donor, and SA-Cy5 is used as the FRET acceptor. The FRET signal is measured as the ratio of fluorescence emission of Cy5 at 665 nm over that of Eu at 620 nm after excitation of Eu at 340 nm.
Next, stopping conditions for the p27 ubiquitination were determined.
Assay Procedures: • 1) Prepare Starting solutions and incubate at room temperature for 20˜30 min Start+Cks1: 12 μM Ub, 3 μM Bio-Ub, and 1.875 ng/μl (187.5 nM) Cks1 in assay dilution buffer. Start−Cks1: 12 μM Ub and 3 μM Bio-Ub in assay dilution buffer. • 2) Prepare Assay mix A as indicated in Table 3 • 3) Set up reaction: In an assay plate, add 5 μl/well of Assay mix A, compound in 6% DMSO and 0.03% Brij35 (30 μg/ml; final concentration at 10 μg/ml), and Starting solutions. The total assay volume is 15 μl. Incubate at room temperature (˜23° C.-25° C.) for 1 hour. • 4) Stop the reaction with the addition of 15 μl/well of Stopping solution (40 mM EDTA, 0.1% Tween 20, 250 nM Cy5, 2 nM Eu-PRG, and 8 nM anti-phospho-p27 in PBS)
A further data set deals with T2, E1 (Homo sapiens, UniProt P22314).
T2 sequence (P22314 1-1058): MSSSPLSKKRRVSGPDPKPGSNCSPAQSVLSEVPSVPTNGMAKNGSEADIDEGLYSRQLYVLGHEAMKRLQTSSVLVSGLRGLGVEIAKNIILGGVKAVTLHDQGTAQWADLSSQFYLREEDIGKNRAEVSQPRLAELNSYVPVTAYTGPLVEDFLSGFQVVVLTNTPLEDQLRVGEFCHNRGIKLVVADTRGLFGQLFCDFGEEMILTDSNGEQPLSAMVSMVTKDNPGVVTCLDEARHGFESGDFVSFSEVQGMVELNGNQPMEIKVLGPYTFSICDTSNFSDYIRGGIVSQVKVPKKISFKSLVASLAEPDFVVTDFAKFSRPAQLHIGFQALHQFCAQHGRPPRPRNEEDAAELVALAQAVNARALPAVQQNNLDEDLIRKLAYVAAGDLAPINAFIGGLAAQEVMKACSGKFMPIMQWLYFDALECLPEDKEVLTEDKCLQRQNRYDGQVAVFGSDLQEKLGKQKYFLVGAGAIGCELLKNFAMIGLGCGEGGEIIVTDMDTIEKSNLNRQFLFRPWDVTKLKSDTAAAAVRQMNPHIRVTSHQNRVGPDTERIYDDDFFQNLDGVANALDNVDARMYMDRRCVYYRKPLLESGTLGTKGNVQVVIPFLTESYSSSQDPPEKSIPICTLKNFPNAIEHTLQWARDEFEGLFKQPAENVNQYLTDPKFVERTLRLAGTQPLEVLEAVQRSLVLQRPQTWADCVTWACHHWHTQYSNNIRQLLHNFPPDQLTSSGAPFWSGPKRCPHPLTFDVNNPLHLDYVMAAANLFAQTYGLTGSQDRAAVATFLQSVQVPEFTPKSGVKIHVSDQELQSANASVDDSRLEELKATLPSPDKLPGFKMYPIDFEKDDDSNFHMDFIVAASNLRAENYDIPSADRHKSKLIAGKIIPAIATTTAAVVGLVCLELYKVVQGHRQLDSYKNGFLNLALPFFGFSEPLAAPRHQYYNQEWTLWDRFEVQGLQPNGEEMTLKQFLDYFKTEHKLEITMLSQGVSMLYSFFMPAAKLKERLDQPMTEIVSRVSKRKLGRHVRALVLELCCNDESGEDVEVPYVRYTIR
The data set is described as follows: apparent Km of ubiquitin for E1. Format: biochemical. The settings on record: read-out: apparent Km of Ub for E1. As for the experimental part:
In an HTR-FRET assay, the background FRET increases as the concentrations of Eu and Cy5 increase. In general, to achieve a low background signal, Eu concentrations should be in the low nM range while Cy5 concentrations can be up to 100-200 nM. To determine the optimal concentration of Bio-Ub used in the p27 Ub assay, 80 nM of p27 was ubiquitinated with 0-4 μM of Bio-Ub and diluted 1:4 with a detection mixture containing a final concentration of 5 nM Eu-PRG, 10 nM anti-p27, and 25-125 nM SA-Cy5. 1 uM of Bio-Ub with 125 nM of Cy5-SA gave the best signal-to-background (S/B) ratio (FIG. 12). […] Since the apparent Km of Ub for E1 is about 2 μM, 4 μM of unlabeled ubiquitin was used in the reaction (2×apparent Km). Ubiquitination of p27 in the presence of 4 μM Ub and 1 μM Bio-Ub was very similar to that of p27 in the presence of saturating concentrations of Bio-Ub (28 μM) (FIG. 13).

As for `C[S+](C)[O-]` [DMSO, dimethylsulfoxide], the “p27 ubiquitination activity remained” value in data set [1] (2% DMSO, titration between 0 and 10% DMSO) is on record as “approximately 60%”. Also, the p27 ubiquitination entry in data set [1] (above 15% (v/v) of DMSO, initial titration) is reported as “nearly completely lost”.
For the compound `O=C(O)CN(CCN(CC(=O)O)CC(=O)O)CC(=O)O` [EDTA], the “effect on p27 ubiquitination” value in data set [2] (5 mM EDTA alone) is reported as “no effect”. Moreover, the p27 ubiquitination entry in data set [2] (10 mM EDTA) is “only partially inhibited”. Besides, the “Ubiquitination of p27” value in data set [2] (20 mM EDTA, data not shown) is on record as “completely inhibited”.
Usually Km stands for the concentration of substrate that gives half-maximal velocity. With ubiquitin, the Km with E1 is around 2 µM.
